Molecular target: Recombinant GMPPNP-loaded KRAS G12C (KRAS-G12C(ON), active form) (Homo sapiens, UniProt P01116, G12C)
Experiment: KRAS G12C RAF Disruption Assay (HTRF)
Assay type: biochemical
Settings: GMPPNP-loaded KRAS G12C 5 nM, GST-RAF1 RBD 9 nM, values given in μM, read-out: KRASG12C RAF Disruption Assay (IC50)
Method: This is a functional assay that measures activity of compounds against […]., the active form of KRAS G12C. Recombinant GMPPNP-loaded KRAS G12C (5 nM) was treated with compound at room temperature for 20 minutes in assay buffer (50 mM Tris pH 7.5, 100 mM NaCl, 1 mM MgCl2, 1 mM DTT, 100 μg/ml BSA). Recombinant GST-RAF1 RBD (9 nM) was added, and the reaction mixture was incubated for 20 minutes. SA-Tb (0.25 nM) was added, and the reaction mixture was incubated for 3 hours. HTRF signal was measured (PerkinElmer Envision), the signal ratio (λem 520/λem 495) was calculated, and IC50 values were calculated from the dose-response curve.

Chain of Recombinant GMPPNP-loaded KRAS G12C (KRAS-G12C(ON), active form) (P01116 1-188 isoform P01116-2 G12C): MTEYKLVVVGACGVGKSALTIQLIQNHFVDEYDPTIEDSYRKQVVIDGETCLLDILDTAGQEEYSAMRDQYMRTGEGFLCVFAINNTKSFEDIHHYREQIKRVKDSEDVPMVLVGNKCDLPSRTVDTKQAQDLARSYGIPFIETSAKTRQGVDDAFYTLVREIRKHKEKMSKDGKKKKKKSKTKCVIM

IC50 [µM]	Compound
21.3	C#Cc1c(F)ccc2cc(O)cc(-c3ccc4c(N5C[C@H]6CC[C@@H](C5)N6C(=O)/C(F)=C/c5ncccn5)nc(OC[C@@H]5CCCN5C)nc4c3F)c12 [Example 30, (Z)-1-((1R,5S)-3-(7-(8-ethynyl-7-fluoro-3-hydroxynaphthalen-1-yl)-8-fluoro-2-(((S)-1-methylpyrrolidin-2-yl)methoxy)quinazolin-4-yl)-3,8-diazabicyclo[3.2.1]octan-8-yl)-2-fluoro-3-(pyrimidin-2-yl)prop-2-en-1-one]

Same assay, conditions: GMPPNP-loaded KRAS G12C 5 nM, GST-RAF1 RBD 9 nM, values in nM, read-out: KRASG12C RAF Disruption Assay (IC50)

IC50 [µM]	Compound
0.022	CN1CCC[C@H]1COc1nc(N2CCN(C(=O)/C(F)=C/c3ccccn3)[C@@H](CC#N)C2)c2ccc(-c3cc(O)cc4ccccc34)c(F)c2n1 [Example 24, 2-((S)-1-((Z)-2-fluoro-3-(pyridin-2-yl)acryloyl)-4-(8-fluoro-7-(3-hydroxynaphthalen-1-yl)-2-(((S)-1-methylpyrrolidin-2-yl)methoxy)quinazolin-4-yl)piperazin-2-yl)acetonitrile]
0.0064	C#Cc1c(F)ccc2cc(O)cc(-c3ccc4c(N5C[C@H]6CC[C@@H](C5)N6C(=O)/C(F)=C/c5ccccn5)nc(OC[C@]56CCC[C@H]5N(C)CCC6)nc4c3F)c12 [Example 27, (Z)-1-((1R,5S)-3-(7-(8-ethynyl-7-fluoro-3-hydroxynaphthalen-1-yl)-8-fluoro-2-(((4aS,7aR)-1-methyloctahydro-4aH-cyclopenta[b]pyridin-4a-yl)methoxy)quinazolin-4-yl)-3,8-diazabicyclo[3.2.1]octan-8-yl)-2-fluoro-3-(pyridin-2-yl)prop-2-en-1-one]
0.35	CN1CCC[C@H]1COc1nc(N2CCN(C(=O)/C(F)=C/c3ccccn3)CC2)c2ccc(-c3cc(O)cc4ccccc34)c(F)c2n1 [Example 28, (S,Z)-2-fluoro-1-(4-(8-fluoro-7-(3-hydroxynaphthalen-1-yl)-2-((1-methylpyrrolidin-2-yl)methoxy)quinazolin-4-yl)piperazin-1-yl)-3-(pyridin-2-yl)prop-2-en-1-one]
0.18	CN1CCC[C@H]1COc1nc(N2CCN(C(=O)/C(F)=C/c3nccs3)CC2)c2ccc(-c3cc(O)cc4ccccc34)c(F)c2n1 [Example 29, (S,Z)-2-fluoro-1-(4-(8-fluoro-7-(3-hydroxynaphthalen-1-yl)-2-((1-methylpyrrolidin-2-yl)methoxy)quinazolin-4-yl)piperazin-1-yl)-3-(thiazol-2-yl)prop-2-en-1-one]
0.29	CN1CCC[C@H]1COc1nc(N2CCN(C(=O)/C(F)=C/c3ncccn3)CC2)c2ccc(-c3cc(O)cc4ccccc34)c(F)c2n1 [Example 32, (S,Z)-2-fluoro-1-(4-(8-fluoro-7-(3-hydroxynaphthalen-1-yl)-2-((1-methylpyrrolidin-2-yl)methoxy)quinazolin-4-yl)piperazin-1-yl)-3-(pyrimidin-2-yl)prop-2-en-1-one]
0.076	CN1CCC[C@H]1COc1nc(N2CCN(C(=O)/C(F)=C/c3nccs3)[C@@H](CC#N)C2)c2ccc(-c3cccc4cccc(Cl)c34)c(F)c2n1 [Example 33, 2-((S)-1-((Z)-2-fluoro-3-(thiazol-2-yl)acryloyl)-4-(8-fluoro-7-(8-chloronaphthalen-1-yl)-2-(((S)-1-methylpyrrolidin-2-yl)methoxy)quinazolin-4-yl)piperazin-2-yl)acetonitrile]
0.027	Cc1cccc(/C=C(\F)C(=O)N2CCN(c3nc(OC[C@@H]4CCCN4C)nc4c(F)c(-c5cc(O)cc6ccccc56)ccc34)C[C@@H]2CC#N)n1 [Example 34, 2-((S)-1-((Z)-2-fluoro-3-(6-methylpyridin-2-yl)acryloyl)-4-(8-fluoro-7-(3-hydroxynaphthalen-1-yl)-2-(((S)-1-methylpyrrolidin-2-yl)methoxy)quinazolin-4-yl)piperazin-2-yl)acetonitrile]
0.29	C#Cc1c(F)ccc2cc(O)cc(-c3ccc4c(N5C[C@H]6CC[C@@H](C5)N6C(=O)/C(F)=C/c5cccc(C)n5)nc(OC[C@@H]5CCCN5C)nc4c3F)c12 [Example 35, (Z)-1-((1R,5S)-3-(7-(8-ethynyl-7-fluoro-3-hydroxynaphthalen-1-yl)-8-fluoro-2-(((S)-1-methylpyrrolidin-2-yl)methoxy)quinazolin-4-yl)-3,8-diazabicyclo[3.2.1]octan-8-yl)-2-fluoro-3-(6-methylpyridin-2-yl)prop-2-en-1-one]
0.025	Cc1cccc(/C=C(\F)C(=O)N2CCN(c3nc(OC[C@@H]4CCCN4C)nc4c(F)c(-c5cccc6cccc(Cl)c56)ccc34)C[C@@H]2CC#N)n1 [Example 36, 2-((S)-1-((Z)-2-fluoro-3-(6-methylpyridin-2-yl)acryloyl)-4-(8-fluoro-7-(8-chloronaphthalen-1-yl)-2-(((S)-1-methylpyrrolidin-2-yl)methoxy)quinazolin-4-yl)piperazin-2-yl)acetonitrile]
0.11	CN1CCC[C@H]1COc1nc(N2CCN(C(=O)/C(F)=C/c3ccccn3)[C@@H](CC#N)C2)c2ccc(-c3cccc4cccc(Cl)c34)c(F)c2n1 [Example 37, 2-((S)-1-((Z)-2-fluoro-3-(pyridin-2-yl)acryloyl)-4-(8-fluoro-7-(8-chloronaphthalen-1-yl)-2-(((S)-1-methylpyrrolidin-2-yl)methoxy)quinazolin-4-yl)piperazin-2-yl)acetonitrile]
0.13	CN1CCC[C@H]1COc1nc(N2CCN(C(=O)/C(F)=C/c3ncccn3)[C@@H](CC#N)C2)c2ccc(-c3cccc4cccc(Cl)c34)c(F)c2n1 [Example 38, 2-((S)-1-((Z)-2-fluoro-3-(pyrimidin-2-yl)acryloyl)-4-(8-fluoro-7-(8-chloronaphthalen-1-yl)-2-(((S)-1-methylpyrrolidin-2-yl)methoxy)quinazolin-4-yl)piperazin-2-yl)acetonitrile]
0.023	N#CC[C@H]1CN(c2nc(OC[C@@]34CCCN3C[C@H](F)C4)nc3c(F)c(-c4cc(O)cc5ccccc45)ccc23)CCN1C(=O)/C(F)=C/c1ccccn1 [Example 39, 2-((S)-4-(8-fluoro-2-(((2R,7aS)-2-fluorotetrahydro-1H-pyrrolizin-7a(5H)-yl)methoxy)-7-(3-hydroxynaphthalen-1-yl)quinazolin-4-yl)-1-((Z)-2-fluoro-3-(pyridin-2-yl)acryloyl)piperazin-2-yl)acetonitrile]
0.011	N#CC[C@H]1CN(c2nc(OC[C@@]34CCCN3C[C@H](F)C4)nc3c(F)c(-c4cc(O)cc5ccccc45)ccc23)CCN1C(=O)/C(F)=C/c1ncccn1 [Example 40, 2-((S)-4-(8-fluoro-2-(((2R,7aS)-2-fluorotetrahydro-1H-pyrrolizin-7a(5H)-yl)methoxy)-7-(3-hydroxynaphthalen-1-yl)quinazolin-4-yl)-1-((Z)-2-fluoro-3-(pyrimidin-2-yl)acryloyl)piperazin-2-yl)acetonitrile]
0.046	N#CC[C@H]1CN(c2nc(OC[C@@]34CCCN3C[C@H](F)C4)nc3c(F)c(-c4cccc5cccc(Cl)c45)ccc23)CCN1C(=O)/C(F)=C/c1ccccn1 [Example 41, 2-((S)-4-(7-(8-chloronaphthalen-1-yl)-8-fluoro-2-(((2R,7aS)-2-fluorotetrahydro-1H-pyrrolizin-7a(5H)-yl)methoxy)quinazolin-4-yl)-1-((Z)-2-fluoro-3-(pyridin-2-yl)acryloyl)piperazin-2-yl)acetonitrile]
0.088	N#CC[C@H]1CN(c2nc(OC[C@@]34CCCN3C[C@H](F)C4)nc3c(F)c(-c4cccc5cccc(Cl)c45)ccc23)CCN1C(=O)/C(F)=C/c1ncccn1 [Example 42, 2-((S)-4-(7-(8-chloronaphthalen-1-yl)-8-fluoro-2-(((2R,7aS)-2-fluorotetrahydro-1H-pyrrolizin-7a(5H)-yl)methoxy)quinazolin-4-yl)-1-((Z)-2-fluoro-3-(pyrimidin-2-yl)acryloyl)piperazin-2-yl)acetonitrile]
0.35	Cc1cc(N)nc(-c2c(Cl)cc3c(N4CCC(CNC(=O)C(F)=Cc5ccccn5)CC4)nc(OCC4CCCN4C)nc3c2F)c1C(F)(F)F [Example 44, (2Z)-N-({1-[(7M)-7-[6-amino-4-methyl-3-(trifluoromethyl)pyridin-2-yl]-6-chloro-8-fluoro-2-{[(2S)-1-methylpyrrolidin-2-yl]methoxy}quinazolin-4-yl]piperidin-4-yl}methyl)-2-fluoro-3-(pyridin-2-yl)prop-2-enamide]
0.048	Cc1cc(N)nc(-c2c(Cl)cc3c(N4C[C@H]5CC[C@@H]4[C@@H]5NC(=O)/C(F)=C/c4ccccn4)nc(OC[C@]45CCCN4C[C@H](F)C5)nc3c2F)c1C(F)(F)F [Example 45, (2Z)-N-[(1R,4R,7R)-2-[(7M)-2-{[(2R,7aR)-2-fluoro-hexahydro-1H-pyrrolizin-7a-yl]methoxy}-7-[6-amino-4-methyl-3-(trifluoromethyl)pyridin-2-yl]-6-chloro-8-fluoroquinazolin-4-yl]-2-azabicyclo[2.2.1]heptan-7-yl]-2-fluoro-3-(pyridin-2-yl)prop-2-enamide]
0.1	Cc1ccc2[nH]ncc2c1-c1ccc2c(N3CCN(C(=O)/C(F)=C/c4ccccn4)[C@@H](CC#N)C3)nc(OC[C@@H]3CCCN3C)nc2c1F [Example 50, 2-((2S)-1-((Z)-2-fluoro-3-(pyridin-2-yl)acryloyl)-4-(8-fluoro-7-(5-methyl-1H-indazol-4-yl)-2-(((S)-1-methylpyrrolidin-2-yl)methoxy)quinazolin-4-yl)piperazin-2-yl)acetonitrile]

From patent US20250263424A1, “KRAS INHIBITORS” (Bristol-Myers Squibb Company, priority 2022, published 2025)
